Source: publication PMC6099547, “Expression, Purification, and Characterization of a Novel Hybrid Peptide with Potent Antibacterial Activity” (Molecules : A Journal of Synthetic Chemistry and Natural …, 2018)
Marks after values point to notes of the source that are not given here. Where a SMILES comes first, the peptide text is derived from it.

Columns and labels:
[1] = tested on: pepsin; assay: Protease susceptibility, residual activity by inhibition zone assay; type: in vitro ADME; conditions: pepsin 10 μg/mL in PBS, agar diffusion inhibition zone; for Functional activity maintained under pepsin: peptide 1 μM in PBS, control without enzyme, S. aureus ATCC25923, three replicates
Protocol: (§1) CVCC1599 as indicator strains. […] Each assay was performed in triplicate.

[2] = target: proteinase K (Parengyodontium album, UniProt P06873); assay: as above; type: in vitro ADME; conditions: proteinase K 10 μg/mL in PBS, peptide 1 μM in PBS; control without enzyme; agar diffusion inhibition zone, S. aureus ATCC25923; three replicates
Protocol: as §1

[3] = tested on: trypsin; assay: as above; conditions: trypsin 10 μg/mL in PBS, peptide 1 μM in PBS; control without enzyme; agar diffusion inhibition zone, S. aureus ATCC25923; three replicates
Protocol: Antibacterial activity of recombinant C–L was assayed by the agar diffusion method with S. aureus ATCC25923 as indicator strain. […] The same volume of PBS was used as negative control. The inhibition zone was measured after incubation overnight at 37 °C. […] CVCC1599 as indicator strains. The indicator strains were cultured at 37 °C to logarithmic stage and diluted to the concentration of 1 × 10^6 cfu/mL with Mueller–Hinton (MH) broth medium, and 180 µL culture was dispensed into per well of 96-well microtiter plate. Peptides were then serially diluted, and dilutions were added into the wells (final volume 200 µL). Each assay was performed in triplicate. After incubation at 37 °C for 12 h, the plate was assessed by measuring the OD600. The MIC was defined as the lowest concentration (at which there was no change in optical density) required to prevent the growth of bacteria.
The stability of the purified recombinant C–L and synthesized C–L at different pH values (2.0–11.0) and different temperatures (37, 50, 60, 70, 80, 90, and 100 °C for 20 min) was evaluated. […] Stability of recombinant C–L and synthesized C–L was assessed by the agar diffusion method as described above and the inhibition zones were recorded. S. aureus ATCC25923 was used as the indicator strain and the inhibition zones were recorded.

[4] = tested on: sheep erythrocytes; assay: Hemolytic assay; type: cell-based; conditions: red cells of sheep
Protocol: Peptide concentrations that caused 50% hemolysis of sheep erythrocytes at 540 nm were measured to evaluate the hemolytic activities. Sheep erythrocytes with 10 mM phosphate buffered saline (PBS)/0.1% (v/v) Triton X-100 (Sigma, San Francisco, CA, USA) added were used as negative/positive control. Assays were performed in triplicate.

[5] = tested on: S. aureus ATCC 25923; type: cell-based, Staphylococcus aureus; conditions: ATCC 25923, 12 h
Protocol: as §1

[6] = tested on: E. coli CVCC245; type: cell-based, Escherichia coli; conditions: CVCC245, 12 h
Protocol: as §1

[7] = tested on: L. mono. CVCC1599; type: cell-based, Listeria monocytogenes; conditions: 12 h
Protocol: as §1

proteinase K, sequence (P06873 106-384): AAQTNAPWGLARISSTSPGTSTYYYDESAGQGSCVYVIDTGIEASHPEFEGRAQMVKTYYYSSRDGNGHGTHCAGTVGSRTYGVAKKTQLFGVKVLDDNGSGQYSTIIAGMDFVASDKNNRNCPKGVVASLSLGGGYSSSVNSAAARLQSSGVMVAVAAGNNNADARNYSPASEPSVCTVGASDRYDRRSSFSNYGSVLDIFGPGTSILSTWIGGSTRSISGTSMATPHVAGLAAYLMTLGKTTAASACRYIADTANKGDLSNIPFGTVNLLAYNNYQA

Structure (SMILES) | Functional activity maintained under pepsin [1] | Reduction in activity when exposed to pepsin ([1]; peptide 1 μM) | Functional activity maintained under proteinase K [2] | Functional activity maintained under trypsin [3] | HC50 (hemolytic activity) [4] | MIC [5] | MIC [6] | MIC [7]
CC[C@H](C)[C@H](NC(=O)[C@H](CCCCN)NC(=O)[C@H](CCCCN)NC(=O)[C@H](Cc1ccccc1)NC(=O)[C@H](CC(C)C)NC(=O)[C@H](CCCCN)NC(=O)[C@H](Cc1c[nH]c2ccccc12)NC(=O)[C@@H](N)CCCCN)C(=O)N[C@@H](Cc1ccccc1)C(=O)N[C@@H](CCCCN)C(=O)N[C@@H](CCCNC(=N)N)C(=O)N[C@H](C(=O)N[C@H](C(=O)N[C@@H](CCC(N)=O)C(=O)N[C@@H](CCCNC(=N)N)C(=O)N[C@H](C(=O)N[C@@H](CCCCN)C(=O)N[C@@H](CC(=O)O)C(=O)N[C@@H](Cc1ccccc1)C(=O)N[C@@H](CC(C)C)C(=O)N[C@@H](CCCNC(=N)N)C(=O)N[C@@H](CC(N)=O)C(=O)O)[C@@H](C)CC)C(C)C)[C@@H](C)CC [C–L, cecropin A (1–8)–LL37 (17–30)] (H-KWKLFKKIFKRIVQRIKDFLRN-OH) | over 50% | nearly half reduction in activity | over 50% | over 50% |  |  |  | 
CC[C@H](C)[C@H](NC(=O)[C@H](CCCCN)NC(=O)[C@H](CCCCN)NC(=O)[C@H](Cc1ccccc1)NC(=O)[C@H](CC(C)C)NC(=O)[C@H](CCCCN)NC(=O)[C@H](Cc1c[nH]c2ccccc12)NC(=O)[C@@H](N)CCCCN)C(=O)N[C@@H](Cc1ccccc1)C(=O)N[C@@H](CCCCN)C(=O)N[C@@H](CCCNC(=N)N)C(=O)N[C@H](C(=O)N[C@H](C(=O)N[C@@H](CCC(N)=O)C(=O)N[C@@H](CCCNC(=N)N)C(=O)N[C@H](C(=O)N[C@@H](CCCCN)C(=O)N[C@@H](CC(=O)O)C(=O)N[C@@H](Cc1ccccc1)C(=O)N[C@@H](CC(C)C)C(=O)N[C@@H](CCCNC(=N)N)C(=O)N[C@@H](CC(N)=O)C(=O)O)[C@@H](C)CC)C(C)C)[C@@H](C)CC [Recombinant C–L] (H-KWKLFKKIFKRIVQRIKDFLRN-OH) | almost the same stability |  | almost the same stability | almost the same stability | 221 ± 3.45 ^a μg/mL | 2.2 ± 0.05 ^c μg/mL | 7.2 ± 0.14 ^b μg/mL | 2.1 ± 0.03 ^c μg/mL
CC[C@H](C)[C@H](NC(=O)[C@H](CCCCN)NC(=O)[C@H](CCCCN)NC(=O)[C@H](Cc1ccccc1)NC(=O)[C@H](CC(C)C)NC(=O)[C@H](CCCCN)NC(=O)[C@H](Cc1c[nH]c2ccccc12)NC(=O)[C@@H](N)CCCCN)C(=O)N[C@@H](Cc1ccccc1)C(=O)N[C@@H](CCCCN)C(=O)N[C@@H](CCCNC(=N)N)C(=O)N[C@H](C(=O)N[C@H](C(=O)N[C@@H](CCC(N)=O)C(=O)N[C@@H](CCCNC(=N)N)C(=O)N[C@H](C(=O)N[C@@H](CCCCN)C(=O)N[C@@H](CC(=O)O)C(=O)N[C@@H](Cc1ccccc1)C(=O)N[C@@H](CC(C)C)C(=O)N[C@@H](CCCNC(=N)N)C(=O)N[C@@H](CC(N)=O)C(=O)O)[C@@H](C)CC)C(C)C)[C@@H](C)CC [Synthesized C–L] (H-KWKLFKKIFKRIVQRIKDFLRN-OH) | maintained a portion of functional activity |  | maintained a portion of functional activity | maintained a portion of functional activity | 219 ± 2.98 ^a μg/mL | 2.0 ± 0.02 ^c μg/mL | 7.0 ± 0.21 ^b μg/mL | 2.2 ± 0.05 ^c μg/mL
